Assay results reported in the kinase profiling compilation of Christmann-Franck et al. (2016).

Tests used:
Assay in all cases: KINOMEscan competition binding
Details in all cases: compound 10.0 µM
DCLK2 (human) = DCLK2 (human) (UniProt Q8N568)
MAP3K6 (human) = MAP3K6 (human) (UniProt O95382)
IGF1R (human) = IGF1R (human) (UniProt P08069)
TNK2 (human) = TNK2 (human) (UniProt Q07912)
PRKCQ (human) = PRKCQ (human) (UniProt Q04759)
EPHB6 (human) = EPHB6 (human) (UniProt O15197)
CDK9 (human) = CDK9 (human) (UniProt P50750)
STK16 (human) = STK16 (human) (UniProt O75716)
BLK (human) = BLK (human) (UniProt P51451)
FGFR1 (human) = FGFR1 (human) (UniProt P11362)
MAP3K9 (human) = MAP3K9 (human) (UniProt P80192)
CSNK1A1L (human) = CSNK1A1L (human) (UniProt Q8N752)
MTOR (human) = MTOR (human) (UniProt P42345)
CAMK2G (human) = CAMK2G (human) (UniProt Q13555)
SRMS (human) = SRMS (human) (UniProt Q9H3Y6)
CAMK2B (human) = CAMK2B (human) (UniProt Q13554)
FER (human) = FER (human) (UniProt P16591)
PIP5K1C (human) = PIP5K1C (human) (UniProt O60331)
CAMKK1 (human) = CAMKK1 (human) (UniProt Q8N5S9)
RPS6KA5 KD2 (human) = RPS6KA5 KD2 (human) (UniProt O75582)
MATK (human) = MATK (human) (UniProt P42679)
MAP3K15 (human) = MAP3K15 (human) (UniProt Q6ZN16)
CDK19 (human) = CDK19 (human) (UniProt Q9BWU1)
CAMK2D (human) = CAMK2D (human) (UniProt Q13557)
NEK7 (human) = NEK7 (human) (UniProt Q8TDX7)
CDKL3 (human) = CDKL3 (human) (UniProt Q8IVW4)
DDR2 (human) = DDR2 (human) (UniProt Q16832)
IRAK3 (human) = IRAK3 (human) (UniProt Q9Y616)
MYLK4 (human) = MYLK4 (human) (UniProt Q86YV6)
SRPK1 (human) = SRPK1 (human) (UniProt Q96SB4)
MAPK8 (human) = MAPK8 (human) (UniProt P45983)
PAK4 (human) = PAK4 (human) (UniProt O96013)
MAPK6 (human) = MAPK6 (human) (UniProt Q16659)
LIMK1 (human) = LIMK1 (human) (UniProt P53667)
[1] = test system: RET (human), P07949 [M918T]
MAST1 (human) = MAST1 (human) (UniProt Q9Y2H9)
TNNI3K (human) = TNNI3K (human) (UniProt Q59H18)
DYRK2 (human) = DYRK2 (human) (UniProt Q92630)
[2] = biological target: JAK3 JH1 catalytic (human) (UniProt P52333)
CDK2 (human) = CDK2 (human) (UniProt P24941)

Chain of CDKL3 (human) (Q8IVW4 whole entry, looked up): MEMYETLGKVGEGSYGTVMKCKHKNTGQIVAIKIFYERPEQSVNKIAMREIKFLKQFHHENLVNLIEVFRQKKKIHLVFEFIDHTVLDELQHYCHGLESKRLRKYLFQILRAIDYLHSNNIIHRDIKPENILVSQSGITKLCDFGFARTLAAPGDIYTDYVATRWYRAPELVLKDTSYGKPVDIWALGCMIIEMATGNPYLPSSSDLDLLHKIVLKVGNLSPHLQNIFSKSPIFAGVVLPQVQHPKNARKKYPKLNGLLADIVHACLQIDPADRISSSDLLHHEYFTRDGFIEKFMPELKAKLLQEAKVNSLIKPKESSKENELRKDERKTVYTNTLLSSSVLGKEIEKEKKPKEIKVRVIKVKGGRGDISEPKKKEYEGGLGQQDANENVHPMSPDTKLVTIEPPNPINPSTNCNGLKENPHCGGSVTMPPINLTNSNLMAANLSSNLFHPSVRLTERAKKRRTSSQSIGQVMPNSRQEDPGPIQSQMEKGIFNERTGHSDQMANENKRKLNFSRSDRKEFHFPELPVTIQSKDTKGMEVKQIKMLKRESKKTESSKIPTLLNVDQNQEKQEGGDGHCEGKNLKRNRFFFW
Chain of FER (human) (P16591 whole entry, looked up): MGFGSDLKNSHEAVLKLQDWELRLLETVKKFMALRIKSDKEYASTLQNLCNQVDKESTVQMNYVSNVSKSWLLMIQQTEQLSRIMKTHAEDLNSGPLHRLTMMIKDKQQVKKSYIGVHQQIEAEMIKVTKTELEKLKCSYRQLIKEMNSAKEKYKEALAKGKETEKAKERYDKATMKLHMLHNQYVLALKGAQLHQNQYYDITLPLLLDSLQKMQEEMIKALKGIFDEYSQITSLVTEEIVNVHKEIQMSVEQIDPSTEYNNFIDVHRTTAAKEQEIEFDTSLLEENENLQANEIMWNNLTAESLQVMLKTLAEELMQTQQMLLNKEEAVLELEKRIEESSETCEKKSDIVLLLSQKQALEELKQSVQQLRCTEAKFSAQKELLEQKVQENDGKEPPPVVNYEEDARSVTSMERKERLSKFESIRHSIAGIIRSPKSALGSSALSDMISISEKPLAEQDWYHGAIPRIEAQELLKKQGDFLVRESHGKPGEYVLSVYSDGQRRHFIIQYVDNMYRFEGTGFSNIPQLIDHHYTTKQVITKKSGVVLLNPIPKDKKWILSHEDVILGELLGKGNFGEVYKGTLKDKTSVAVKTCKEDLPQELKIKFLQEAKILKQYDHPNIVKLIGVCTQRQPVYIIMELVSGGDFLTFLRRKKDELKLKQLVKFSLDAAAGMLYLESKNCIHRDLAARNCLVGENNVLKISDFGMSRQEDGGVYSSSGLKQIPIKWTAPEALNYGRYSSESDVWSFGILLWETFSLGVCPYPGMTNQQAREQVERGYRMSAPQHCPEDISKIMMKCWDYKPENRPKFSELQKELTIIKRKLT
Chain of JAK3 JH1 catalytic (human) (P52333 whole entry, looked up): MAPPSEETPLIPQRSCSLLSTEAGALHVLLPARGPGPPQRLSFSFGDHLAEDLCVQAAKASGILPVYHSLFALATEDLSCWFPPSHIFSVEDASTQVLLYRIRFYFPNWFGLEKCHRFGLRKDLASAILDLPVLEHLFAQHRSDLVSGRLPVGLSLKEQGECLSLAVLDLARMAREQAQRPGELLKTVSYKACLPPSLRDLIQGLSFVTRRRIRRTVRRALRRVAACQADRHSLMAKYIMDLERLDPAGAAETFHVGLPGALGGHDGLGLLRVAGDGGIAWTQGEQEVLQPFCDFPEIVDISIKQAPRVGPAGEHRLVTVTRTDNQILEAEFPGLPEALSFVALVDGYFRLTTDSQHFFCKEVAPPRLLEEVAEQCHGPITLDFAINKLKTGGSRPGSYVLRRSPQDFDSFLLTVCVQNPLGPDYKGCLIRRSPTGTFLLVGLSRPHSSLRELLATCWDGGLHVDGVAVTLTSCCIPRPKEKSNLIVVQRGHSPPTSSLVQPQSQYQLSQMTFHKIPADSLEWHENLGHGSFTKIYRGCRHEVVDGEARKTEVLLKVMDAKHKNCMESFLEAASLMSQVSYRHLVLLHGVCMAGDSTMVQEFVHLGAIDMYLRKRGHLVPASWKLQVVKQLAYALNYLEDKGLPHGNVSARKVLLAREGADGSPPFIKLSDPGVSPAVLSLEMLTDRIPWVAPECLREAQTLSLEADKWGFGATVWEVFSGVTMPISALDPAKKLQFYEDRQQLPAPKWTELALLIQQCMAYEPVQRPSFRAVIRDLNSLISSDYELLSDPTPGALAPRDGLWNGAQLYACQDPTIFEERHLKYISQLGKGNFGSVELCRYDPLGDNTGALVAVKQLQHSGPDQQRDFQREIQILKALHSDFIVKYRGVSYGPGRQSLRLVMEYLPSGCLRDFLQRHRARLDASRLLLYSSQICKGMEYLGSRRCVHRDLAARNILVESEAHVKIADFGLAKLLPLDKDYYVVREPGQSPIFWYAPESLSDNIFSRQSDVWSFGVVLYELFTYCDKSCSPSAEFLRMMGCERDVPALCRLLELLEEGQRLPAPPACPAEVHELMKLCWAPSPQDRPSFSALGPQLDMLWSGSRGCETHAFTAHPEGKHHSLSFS
Chain of MAPK8 (human) (P45983 whole entry, looked up): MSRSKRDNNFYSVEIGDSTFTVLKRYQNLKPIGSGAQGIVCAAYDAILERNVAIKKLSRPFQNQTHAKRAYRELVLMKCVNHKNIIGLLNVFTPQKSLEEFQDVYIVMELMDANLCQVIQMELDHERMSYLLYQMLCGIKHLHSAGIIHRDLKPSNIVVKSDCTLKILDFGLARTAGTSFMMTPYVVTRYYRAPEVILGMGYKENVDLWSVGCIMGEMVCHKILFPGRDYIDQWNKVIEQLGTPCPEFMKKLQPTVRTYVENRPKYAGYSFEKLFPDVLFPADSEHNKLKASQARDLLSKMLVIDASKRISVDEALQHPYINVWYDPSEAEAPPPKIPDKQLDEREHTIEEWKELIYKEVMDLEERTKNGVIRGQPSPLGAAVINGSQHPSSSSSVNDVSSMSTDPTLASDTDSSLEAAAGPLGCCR
Chain of CDK19 (human) (Q9BWU1 whole entry, looked up): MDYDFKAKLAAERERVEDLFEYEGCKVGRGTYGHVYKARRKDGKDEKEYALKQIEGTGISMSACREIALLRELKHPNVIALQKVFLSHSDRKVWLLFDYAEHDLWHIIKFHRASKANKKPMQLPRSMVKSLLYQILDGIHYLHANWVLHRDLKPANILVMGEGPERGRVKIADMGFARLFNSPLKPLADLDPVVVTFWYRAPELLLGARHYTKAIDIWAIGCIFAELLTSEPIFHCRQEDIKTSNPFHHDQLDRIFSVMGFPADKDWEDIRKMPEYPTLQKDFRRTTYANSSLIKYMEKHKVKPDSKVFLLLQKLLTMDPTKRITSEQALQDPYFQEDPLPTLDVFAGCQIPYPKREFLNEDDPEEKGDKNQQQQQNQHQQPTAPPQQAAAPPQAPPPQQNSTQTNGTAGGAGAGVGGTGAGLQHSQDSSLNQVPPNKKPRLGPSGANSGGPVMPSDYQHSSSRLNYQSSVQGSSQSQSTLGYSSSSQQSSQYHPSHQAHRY
Chain of TNK2 (human) (Q07912 whole entry, looked up): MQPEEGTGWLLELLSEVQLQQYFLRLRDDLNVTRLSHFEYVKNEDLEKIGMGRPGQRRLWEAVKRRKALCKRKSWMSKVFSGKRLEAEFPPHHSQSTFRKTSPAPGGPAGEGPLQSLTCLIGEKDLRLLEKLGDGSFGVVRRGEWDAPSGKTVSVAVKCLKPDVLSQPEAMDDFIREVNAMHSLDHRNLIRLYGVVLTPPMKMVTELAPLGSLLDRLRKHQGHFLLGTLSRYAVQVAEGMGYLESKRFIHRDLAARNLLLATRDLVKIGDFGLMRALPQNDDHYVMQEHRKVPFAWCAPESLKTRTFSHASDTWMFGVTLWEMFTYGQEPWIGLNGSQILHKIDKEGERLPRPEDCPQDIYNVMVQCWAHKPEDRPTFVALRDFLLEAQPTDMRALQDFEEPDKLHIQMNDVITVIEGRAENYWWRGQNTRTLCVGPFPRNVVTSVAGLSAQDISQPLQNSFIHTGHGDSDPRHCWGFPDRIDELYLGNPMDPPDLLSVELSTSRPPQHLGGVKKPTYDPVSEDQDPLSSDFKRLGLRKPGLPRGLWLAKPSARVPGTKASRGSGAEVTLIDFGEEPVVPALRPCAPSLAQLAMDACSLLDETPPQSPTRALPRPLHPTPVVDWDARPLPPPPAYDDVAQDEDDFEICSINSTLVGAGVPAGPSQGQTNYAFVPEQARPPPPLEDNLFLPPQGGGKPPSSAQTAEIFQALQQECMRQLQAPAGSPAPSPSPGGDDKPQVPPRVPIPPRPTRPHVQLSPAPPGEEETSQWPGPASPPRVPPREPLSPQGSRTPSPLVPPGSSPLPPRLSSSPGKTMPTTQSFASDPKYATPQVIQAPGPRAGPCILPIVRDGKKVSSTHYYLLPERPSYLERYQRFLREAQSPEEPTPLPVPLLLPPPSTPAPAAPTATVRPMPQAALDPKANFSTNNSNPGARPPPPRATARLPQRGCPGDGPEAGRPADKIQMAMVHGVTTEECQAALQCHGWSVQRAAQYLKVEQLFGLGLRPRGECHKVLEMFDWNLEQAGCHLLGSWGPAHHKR
Chain of BLK (human) (P51451 whole entry, looked up): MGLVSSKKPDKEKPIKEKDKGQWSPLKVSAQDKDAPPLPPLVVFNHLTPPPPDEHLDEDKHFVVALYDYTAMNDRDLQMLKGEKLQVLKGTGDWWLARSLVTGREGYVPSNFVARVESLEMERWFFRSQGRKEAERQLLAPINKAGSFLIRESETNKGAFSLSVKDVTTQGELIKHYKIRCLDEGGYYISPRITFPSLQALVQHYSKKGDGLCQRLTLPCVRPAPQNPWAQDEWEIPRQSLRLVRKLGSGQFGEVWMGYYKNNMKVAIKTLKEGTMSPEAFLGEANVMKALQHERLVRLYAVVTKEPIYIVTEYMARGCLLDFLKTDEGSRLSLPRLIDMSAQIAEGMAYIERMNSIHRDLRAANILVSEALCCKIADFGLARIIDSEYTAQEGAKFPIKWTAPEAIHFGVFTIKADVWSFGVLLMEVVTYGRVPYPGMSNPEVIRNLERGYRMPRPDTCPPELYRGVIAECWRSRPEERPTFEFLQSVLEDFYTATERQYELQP

Structure (SMILES) | kinase still bound, per cent of control (DCLK2 (human)) [%] | kinase still bound, per cent of control (MAP3K6 (human)) [%] | kinase still bound, per cent of control (IGF1R (human)) [%] | kinase still bound, per cent of control (TNK2 (human)) [%] | kinase still bound, per cent of control (PRKCQ (human)) [%] | kinase still bound, per cent of control (EPHB6 (human)) [%] | kinase still bound, per cent of control (CDK9 (human)) [%] | kinase still bound, per cent of control (STK16 (human)) [%] | kinase still bound, per cent of control (BLK (human)) [%] | kinase still bound, per cent of control (FGFR1 (human)) [%] | kinase still bound, per cent of control (MAP3K9 (human)) [%] | kinase still bound, per cent of control (CSNK1A1L (human)) [%] | kinase still bound, per cent of control (MTOR (human)) [%] | kinase still bound, per cent of control (CAMK2G (human)) [%] | kinase still bound, per cent of control (SRMS (human)) [%] | kinase still bound, per cent of control (CAMK2B (human)) [%] | kinase still bound, per cent of control (FER (human)) [%] | kinase still bound, per cent of control (PIP5K1C (human)) [%] | kinase still bound, per cent of control (CAMKK1 (human)) [%] | kinase still bound, per cent of control (RPS6KA5 KD2 (human)) [%] | also measured
CN(C)C/C=C/C(=O)Nc1ccc(C(=O)Nc2cccc(Nc3nccc(-c4cccnc4)n3)c2)cc1 | 100 | 86 | 100 | 100 | 68 | 3.9 | 90 | 1.2 | 100 | 89 | 78 | 100 | 80 | 76 | 85 | 60 | 100 | 20 | 52 | 98 | kinase still bound, per cent of control (MATK (human)): 91%; kinase still bound, per cent of control (MAP3K15 (human)): 56%; kinase still bound, per cent of control (CDK19 (human)): 100%; kinase still bound, per cent of control (CAMK2D (human)): 67%; kinase still bound, per cent of control (NEK7 (human)): 9.8%; kinase still bound, per cent of control (CDKL3 (human)): 20%; kinase still bound, per cent of control (DDR2 (human)): 64%; kinase still bound, per cent of control (IRAK3 (human)): 6.8%; kinase still bound, per cent of control (MYLK4 (human)): 36%; kinase still bound, per cent of control (SRPK1 (human)): 26%; kinase still bound, per cent of control (MAPK8 (human)): 1.2%; kinase still bound, per cent of control (PAK4 (human)): 83%; kinase still bound, per cent of control (MAPK6 (human)): 7.4%; kinase still bound, per cent of control (LIMK1 (human)): 60%; kinase still bound, per cent of control [1]: 70%; kinase still bound, per cent of control (MAST1 (human)): 100%; kinase still bound, per cent of control (TNNI3K (human)): 100%; kinase still bound, per cent of control (DYRK2 (human)): 29%; kinase still bound, per cent of control [2]: 10%; kinase still bound, per cent of control (CDK2 (human)): 100%
COc1ccc(N(C(=O)Oc2c(C)cccc2C)c2ccnc(Nc3ccc(N4CCN(C)CC4)cc3)n2)c(OC)c1 | 44 | 93 | 100 | 0 | 21 | 1.2 | 33 | 15 | 0.05 | 0.25 | 0.6 | 100 | 100 | 100 | 8.6 | 98 | 0.85 | 96 | 88 | 93 | kinase still bound, per cent of control (MATK (human)): 67%; kinase still bound, per cent of control (MAP3K15 (human)): 83%; kinase still bound, per cent of control (CDK19 (human)): 100%; kinase still bound, per cent of control (CAMK2D (human)): 100%; kinase still bound, per cent of control (NEK7 (human)): 80%; kinase still bound, per cent of control (CDKL3 (human)): 0.1%; kinase still bound, per cent of control (DDR2 (human)): 0%; kinase still bound, per cent of control (IRAK3 (human)): 19%; kinase still bound, per cent of control (MYLK4 (human)): 100%; kinase still bound, per cent of control (SRPK1 (human)): 23%; kinase still bound, per cent of control (MAPK8 (human)): 64%; kinase still bound, per cent of control (PAK4 (human)): 97%; kinase still bound, per cent of control (MAPK6 (human)): 100%; kinase still bound, per cent of control (LIMK1 (human)): 0%; kinase still bound, per cent of control [1]: 0.1%; kinase still bound, per cent of control (MAST1 (human)): 100%; kinase still bound, per cent of control (TNNI3K (human)): 0%; kinase still bound, per cent of control (DYRK2 (human)): 80%; kinase still bound, per cent of control [2]: 0.25%; kinase still bound, per cent of control (CDK2 (human)): 65%
COc1cc2ncnc(-n3nc(-c4ccccn4)nc3N)c2cc1OC | 88 | 64 | 100 | 54 | 100 | 2.2 | 76 | 2.8 | 8.8 | 65 | 70 | 32 | 5 | 56 | 27 | 37 | 93 | 5 | 17 | 33 | kinase still bound, per cent of control (MATK (human)): 57%; kinase still bound, per cent of control (MAP3K15 (human)): 54%; kinase still bound, per cent of control (CDK19 (human)): 100%; kinase still bound, per cent of control (CAMK2D (human)): 55%; kinase still bound, per cent of control (NEK7 (human)): 1.4%; kinase still bound, per cent of control (CDKL3 (human)): 5.3%; kinase still bound, per cent of control (DDR2 (human)): 22%; kinase still bound, per cent of control (IRAK3 (human)): 12%; kinase still bound, per cent of control (MYLK4 (human)): 25%; kinase still bound, per cent of control (SRPK1 (human)): 83%; kinase still bound, per cent of control (MAPK8 (human)): 12%; kinase still bound, per cent of control (PAK4 (human)): 72%; kinase still bound, per cent of control (MAPK6 (human)): 85%; kinase still bound, per cent of control (LIMK1 (human)): 22%; kinase still bound, per cent of control [1]: 14%; kinase still bound, per cent of control (MAST1 (human)): 73%; kinase still bound, per cent of control (TNNI3K (human)): 80%; kinase still bound, per cent of control (DYRK2 (human)): 0.25%; kinase still bound, per cent of control [2]: 33%; kinase still bound, per cent of control (CDK2 (human)): 50%
